Where only a bound is given, the exact number is not on record here.

What is called melting point is the temperature of the solid-liquid transition.

With `CCN(Cc1ccc(Cl)nc1)C(=NC#N)NC`, the melting point fell in the range of 122 to 123 °C.
The molecule `CCOCc1nc2c(N)nc3cc(-c4ccsc4)ccc3c2n1CC(C)C` displayed a melting point of 187 to 189 °C.
Then `Cc1nc(N2C[C@@H](C)N(Cc3cc(F)cc(F)c3)C2=O)sc1C(N)=O`, with 212 to 213 °C; and `CCOC(=O)c1ccc(NC(C)=O)c(CC(O)CO)c1` (stereo unspecified), with 114 to 116 °C; and `S=C(NCc1ccccc1Cl)N1CCc2c([nH]c3ccccc23)C1c1ccc2c(c1)OCO2` (stereo unspecified), with 123 to 128 °C.
Molecule `CC12CC3OC3CC1CCC1C2CCC2(C)C(O)C(N3CCC4(CC3)OCCO4)CC12` (stereo unspecified) showed a melting point of 186 to 188 °C.
Take `O=C(Cc1ccc(I)cc1)N1CCOCC1`: the melting point is 114 to 117 °C.
The molecule `CSC(=NS(=O)(=O)N1CCCCC1)N1CC(c2ccccc2)C(c2ccc(Cl)cc2)=N1` (stereo unspecified) gave a melting point of 192 to 194 °C.
Turning to `Cc1cn2nc(SCc3ccccc3)nc2nc1C`, the melting point fell in the range of 147 to 149 °C.
For `CC(=O)CC(=O)CC(=O)c1cc(S(=O)(=O)c2ccccc2)ccc1[N+](=O)[O-]`, the melting point fell in the range of 143 to 145 °C.
Then `CCCCOc1c(CNC(=O)OC(C)(C)C)n(CC(C)C)c(=O)c2ccc(-c3nnn[nH]3)cc12`, with 152 to 153 °C.
As for `COC(=O)C1CC(C#N)(c2ccc(OC(F)F)c(OC3CCCC3)c2)CCC1=O` (stereo unspecified), the melting point was 109 to 110 °C.
Then `COc1ccc(-c2nc(-c3cccn3CC(=O)O)sc2-c2ccc(OC)cc2)cc1`, with 198 to 200 °C; and `Nc1ccc(S(=O)(=O)c2cc(Br)nc(N3CCOCC3)c2)cc1`, with 244 to 245 °C; and `CC(C)(C)OC(=O)c1cc(-c2cccc(F)c2)c(=O)n2c1-c1sccc1CC2`, with 135 to 137 °C.
Then `Cc1cc(O)ccc1Nc1ccccc1C(=O)O`, with 209 to 211 °C; and `CCCc1c(OCCCOCCCOc2ccc3ccc(OCC(=O)O)cc3c2C(C)=O)ccc(C(C)=O)c1O`, with 101 to 104 °C.
`COc1c(C)c(C)c(OCc2ccccc2)c(C)c1CN(C)CCOc1cc(C)ccc1C(C)C` yielded a melting point of 138 to 141 °C.
Take `COc1c2c(cc3ccc(OC(C)=O)cc13)-c1ccc(OC(C)=O)cc1CO2`: the melting point is 165 to 167 °C.
`Nc1ncnc2c1ncn2C1OC(C(O)C(=O)OCc2ccccc2)C(O)C1O` (stereo unspecified) registered a melting point of 144 to 145 °C.
The figure for `CC(C)(C)OC(=O)NNc1ccc([N+](=O)[O-])cn1` is 132 to 134 °C; for `NC(=O)C(=O)NC(C(=O)OC(c1ccccc1)c1ccccc1)c1ccccc1` (stereo unspecified) it is 168 °C.
For the molecule `COCC(OC(N)=O)c1nc2cc(F)c(OC(C)c3c(Cl)ccc(F)c3Cl)cc2s1` (stereo unspecified), the melting point was 200 to 205 °C.
As to `O=C1N2CCc3ccsc3C23SC1(c1ccccc1)CC3[N+](=O)[O-]` (stereo unspecified), the melting point is 192 to 196 °C.
Molecule `CC1(C)CC(N(c2nc(F)nc(N(C3CC(C)(C)N(O)C(C)(C)C3)C3CC(C)(C)N(O)C(C)(C)C3)n2)C2CC(C)(C)N(O)C(C)(C)C2)CC(C)(C)N1O` returned a melting point of 254 to 257 °C.
`CS(=O)(=O)c1ccc(-c2[nH]nc(C(=O)CCCO[N+](=O)[O-])c2C2CCCCC2)cc1`: the melting point is 122 to 124 °C.
`NCC(CN)(CN)CN` registered a melting point of 70 °C.
Then `CC(=O)N1CCN(c2c(F)c(C)c3c(=O)c(C(=O)O)cn(C4CC4)c3c2F)CC1`, with 217 to 220 °C; and `NCc1cccc(CNc2ncc3ncnc(Nc4ccc(F)c(Cl)c4)c3n2)c1`, with 179 to 182 °C.
In turn, `OCc1nn(-c2ccc(F)cc2)c2c1CCCC2` showed a melting point of 117 to 118 °C.
Turning to `Cc1cc(C)n(C(=O)CCl)n1`, the melting point turned out to be 62 °C.
`OCc1cnoc1-c1ccc(Br)cc1` showed a melting point of 104 to 105 °C.
The molecule `CC(C)(C)c1ccc(C#N)c(NC(=O)Nc2cccnc2)c1` yielded a melting point of 164 to 166 °C.
As to `CCCc1nc2c(N)nc3c(c2n1CCOCCS(C)(=O)=O)CCCC3`, the melting point was in the range of 153 to 155 °C.
`CCCC(=O)Oc1c(-c2ccc(-c3ccccc3)cc2)nc2ccccc2c1C(=O)O` gave a melting point of 195 to 196 °C.
With `CC(C)(CO)Oc1ccc2c(c1)CCc1c-2ccc2c1CCC2(C)C`, the melting point is 122 to 125 °C.
`Cc1ccc(S(=O)(=O)N2CCN(C(c3ccccc3)c3ccc(Cl)cc3)CC2)cc1` (single isomer, unassigned; (+)) yielded a melting point of 171 °C.
In turn, `COc1ccc(CN(C)CCCOc2ccc(NC(=O)c3cccc4c(=O)c5cccc(C)c5[nH]c34)cc2)cc1OC` registered a melting point of 160 °C.
The figure for `O=C(O)c1cccc(NC(=O)[C@H](CO)NS(=O)(=O)c2ccc(Cl)cc2)c1` is 220 to 224 °C.
`CCON=C(C(C)=NOCc1ccccc1C(=NOC)C(=O)NC)c1ccc(OC[Si](C)(C)c2ccc(F)cc2)cc1`: the melting point was in the range of 88 to 90 °C.
In turn, `CCOC(=O)[C@H](CO)NC(=O)[C@H](CC(=O)OCc1ccccc1)NC(=O)OC(C)(C)C` displayed a melting point of 96 to 97 °C.
Take `CN1CCN(c2ccccc2C(F)(F)F)C(C2=NCCN2)C1` (stereo unspecified): the melting point was 163 to 165 °C.
Then `CCN1C(=O)C(NC(=O)C(F)(F)F)CCc2c1ccc(Nc1ncc(Cl)c(Nc3ccccc3S(=O)(=O)C(C)C)n1)c2OC` (stereo unspecified), with 245 to 247 °C; and `CC(C)c1ccc(S(=O)(=O)n2c(CCCC(=O)O)cc3nc(C(F)(F)F)ccc32)cc1`, with 144 °C.
The figure for `O=C1Nc2ccc(Cl)c(Cl)c2C(=O)N2CCC[C@@H]12` is 203 to 205 °C; for `COc1ccc(CSC(C)(C)C(O)(CO)c2ccc(F)cc2F)cc1` (stereo unspecified) it is 113 °C; for `Nc1nc(N)c(C=O)c(OCC2CCCCC2)n1` it is 159 to 160 °C.
As for `O=C(O)c1ccc(CN(C2CCCCC2O)S(=O)(=O)c2ccc(Cl)cc2)cc1` (stereo unspecified), the melting point was in the range of 218 to 219 °C.
For the molecule `N#CCc1cc2c(cc1CC#N)OCO2`, the melting point is 105 to 107 °C.
`COc1ccc(-c2nc(C)c(-c3cccnc3)n2O)cc1OC`: the melting point lay within 131 to 135 °C.
Consider `CC(C)(Oc1ccc(Cl)cc1Cl)C(=O)C(Cc1ccc(Cl)cc1)n1cncn1` (stereo unspecified), for which the melting point lay within 104 to 108 °C.
`CN1CCN(Cc2ccc(NC(=O)n3ccc4cc(Oc5cc(CC(N)=O)ncn5)ccc43)cc2C(F)(F)F)CC1`: the melting point lay in the range of 221 to 223 °C.
Molecule `CC(C)CN(CC(C)C)S(=O)(=O)N[C@@H](Cc1ccc(Oc2nccc3cnccc23)cc1)C(=O)O` yielded a melting point of 88 °C.
For `N#Cc1ccc(OCc2ccc3c(c2)OCO3)cc1OC(C(=O)O)c1ccccc1Cl` (racemic), the melting point lay in the range of 144 to 145 °C.
The figure for `O=C1NN=C(c2ccccc2)c2c[nH]c3cccc1c23` is 177 to 179 °C.
Turning to `O=C(O)COc1cc(Br)c2oc3ccccc3c(=O)c2c1`, the melting point was in the range of 219 to 221 °C.
On to `CCCn1c(=O)[nH]c2ccc(C(=O)c3nc(-c4cccc(C(=O)O)c4)c4ccccn34)cc2c1=O`, for which the melting point is 365 °C.
The figure for `COc1cccc(C(CC(N)=O)CC(N)=O)c1` is 161 to 162 °C; for `NCC1CN(c2cc3c(cc2F)c(=O)c(C(=O)O)cn3C2CC2)C1` it is 205 to 211 °C.
In turn, `O=C1Nc2ccccc2C(c2ccccc2F)=NC1Cc1cccs1` (racemic) showed a melting point of 189 to 191 °C.
The figure for `O=C1OC(=O)c2cc(N3C(=O)CCCC3=O)ccc21` is 220 to 222 °C; for `CC(=O)Oc1ccc(N)cc1C(=O)O` it is 133 to 136 °C; for `COc1cc(C(=O)O)nc(-c2ccc(N(C)C)cc2)c1` it is 142 to 148 °C.
`O=C(NC1CCCOC1)c1ccc2nonc2c1` (stereo unspecified) had a melting point of 204 to 205 °C.
Take `COc1ccc(-n2nc(O)c3c(=O)c4ccc(Cl)cc4[nH]c3c2=O)cc1Cl`: the melting point lay within 395 to 396 °C.
With `COc1ccnc(CCc2nc3cc(-c4ccc(S(=O)(=O)N(C)c5ccc(Cl)cc5)cc4)cnc3[nH]2)c1`, the melting point was 191 to 192 °C.
Turning to `O=C(Nc1ccc(C(=O)O)cc1)OCc1ccccc1`, the melting point was greater than 235 °C.
Regarding `CCCCCC1(C(=O)O)CC2=C(C1)C(C)(C)CCC2(C)C`, the melting point lay in the range of 57 to 58 °C.
In turn, `Cn1c(=N)c(C(=O)NCCO)c(O)c2cc(Cl)ccc21` displayed a melting point of 234 to 237 °C.
For `COc1ncc(CNc2ccccc2C(=O)Nc2cccc(C(F)(F)F)c2)cc1Br`, the melting point was 110 to 111 °C.
Molecule `CCCCCCCCCCCCCCCCCCNC(=O)OCC(CNS(=O)(=O)CCCCl)NC(=O)OC` (stereo unspecified) yielded a melting point of 99 to 101 °C.
For `CCNC(=O)c1cccc(C2(c3ccc(OC(F)(F)F)cc3)N=C(N)N3CCCN=C32)c1` (stereo unspecified), the melting point was in the range of 129 to 136 °C.
The molecule `CC(COc1ccc2c(c1)C(=O)NC(C)(C)O2)NCc1ccccc1` (stereo unspecified) showed a melting point of 127 to 129 °C.
Molecule `C=Cc1ccc(Nc2c(C(=O)NOCCO)ccc(F)c2F)c(F)c1` registered a melting point of 134 to 137 °C.
Turning to `COc1ccc(CCCC(=O)Nc2ncc([N+](=O)[O-])s2)cc1`, the melting point lay in the range of 176 to 177 °C.
Then `COc1cc2c(c([N+](=O)[O-])c1)NCCC2=O`, with 161 to 162 °C.
As to `N#Cc1cnn(-c2nc(Cl)c(C(F)(F)F)cc2Cl)c1N`, the melting point lay within 168 to 171 °C.
As for `c1ccc(-c2cn3ncsc3n2)cc1`, the melting point was 127 to 130 °C.
`CCOC(=O)c1ccc2c(CCN)c[nH]c2c1`: the melting point was 169 to 172 °C.
The figure for `CC(=O)NCc1cccc(-c2nc(=O)c3ccccc3s2)n1` is 199 to 200 °C.
`N#Cc1cc2cc(O)c(O)cc2s1` displayed a melting point of 229 to 230 °C.
In turn, `Cc1nc2n(c1CN(C)C)-c1ccc(Cl)cc1C(c1ccccc1Cl)=NC2` returned a melting point of 191 to 194 °C.
Molecule `Cc1c(C(=O)Nc2ccc(N3CCC(CCO)CC3)c(C#N)c2)cnn1-c1ccc(F)cc1` came in with a melting point of 186 °C.
`Cc1cc(=O)c(-c2ccc(Oc3ccc(C(F)(F)F)cc3)cc2)c(C)[nH]1` gave a melting point of 258 to 260 °C.
On to `O=C1CCCc2sc(-c3ccncc3)cc21`, for which the melting point was 156 to 158 °C.
As to `COC(CCNC(=O)C(F)(F)F)(c1ccccc1)c1ccccc1`, the melting point fell in the range of 108 to 110 °C.
